Tests used:
[1] = target: T1, human recombinant histamine H1 receptor (Homo sapiens, UniProt P35367); experiment: Histamine H1 radioligand binding ([3H]Pyrilamine); settings: compound at 0.1 μM; 1.2 nM [3H]Pyrilamine; read-out: Binding data (Percentage inhibition) Histamine H1 (0.1 μM)
T1 construct: expressed in transfected cells; host or cells: CHO-K1
Procedure: To evaluate in radioligand binding assays the activity of compounds of the invention, human recombinant histamine H1 receptor expressed in Chinese hamster ovary (CHO) K1 cells (De Backer, M. et al, Biochem. Biophys. Res. Comm. 197(3):1601, 1993) in a modified Tris-HCl buffer (50 mM Tris-HCl, pH 7.4, 2 mM MgCl2, 100 mM NaCl, 250 mM Sucrose) was used. Compounds of the invention were incubated with 1.2 nM [^3H]Pyrilamine for 180 min at 25° C. Non-specific binding was estimated in the presence of 1 μM Pyrilamine. Receptor proteins were filtered and washed, the filters were then counted to determine [^3H]Pyrilamine specifically bound. Compounds were screened at 1 μM or lower, using 1% DMSO as vehicle. Biochemical assay results are presented as the percent inhibition of specific binding in Table 2.

[2] = target: T2, human recombinant dopamine D2L receptor (Homo sapiens, UniProt P14416); experiment: Dopamine D2L radioligand binding ([3H]Spiperone); settings: compound at 1 μM; read-out: Percentage inhibition of ligand binding, Dopamine (1 μM) D2L
T2 construct: expressed in transfected cells; host or cells: CHO
T2 sequence (P14416 whole entry): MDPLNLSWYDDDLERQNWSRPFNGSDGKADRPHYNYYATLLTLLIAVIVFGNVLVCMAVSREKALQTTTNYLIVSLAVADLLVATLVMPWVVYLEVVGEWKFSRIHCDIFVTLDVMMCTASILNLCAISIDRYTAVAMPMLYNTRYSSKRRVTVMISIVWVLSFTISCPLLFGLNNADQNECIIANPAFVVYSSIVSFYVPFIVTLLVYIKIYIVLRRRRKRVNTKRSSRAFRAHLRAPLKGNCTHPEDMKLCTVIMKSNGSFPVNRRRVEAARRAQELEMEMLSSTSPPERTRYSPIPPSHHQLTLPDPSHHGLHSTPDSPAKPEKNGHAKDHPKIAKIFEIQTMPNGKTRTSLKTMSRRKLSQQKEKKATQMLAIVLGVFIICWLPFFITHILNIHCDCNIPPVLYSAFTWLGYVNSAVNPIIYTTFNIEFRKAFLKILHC
Procedure: To evaluate in radioligand binding assays the activity of compounds of the invention, human recombinant dopamine D2L receptor expressed in Chinese hamster ovary (CHO) cells (Grandy, D. et al, Proc. Natl. Acad. Sci. USA. 86:9762, 1989; Hayes, G. et al, Mol. Endocrinol. 6:920, 1992) in a modified Tris-HCl buffer (50 mM Tris-HCl, pH 7.4, 1.4 mM Ascorbic Acid, 0.001% BSA, 150 mM NaCl) was used. Compounds of the invention were incubated with 0.16 nM [^3H]Spiperonefor 120 min at 25° C. Non-specific binding was estimated in the presence of 10 μM Haloperidol. Receptor proteins were filtered and washed, the filters were then counted to determine [^3H]Spiperone specifically bound. Compounds were screened at 1 μM or lower, using 1% DMSO as vehicle. Biochemical assay results are presented as the percent inhibition of specific binding in Table 3.

[3] = target: T3, human recombinant serotonin (5-Hydroxytryptamine) 5-HT5A receptor (Homo sapiens, UniProt P47898); experiment: Serotonin 5-HT5A radioligand binding ([3H]LSD); settings: compound at 0.1 μM; read-out: Percentage inhibition of ligand binding, Serotonin (0.1 μM) 5-HT5A
T3 construct: expressed in transfected cells; host or cells: CHO-K1
T3 sequence (P47898 whole entry): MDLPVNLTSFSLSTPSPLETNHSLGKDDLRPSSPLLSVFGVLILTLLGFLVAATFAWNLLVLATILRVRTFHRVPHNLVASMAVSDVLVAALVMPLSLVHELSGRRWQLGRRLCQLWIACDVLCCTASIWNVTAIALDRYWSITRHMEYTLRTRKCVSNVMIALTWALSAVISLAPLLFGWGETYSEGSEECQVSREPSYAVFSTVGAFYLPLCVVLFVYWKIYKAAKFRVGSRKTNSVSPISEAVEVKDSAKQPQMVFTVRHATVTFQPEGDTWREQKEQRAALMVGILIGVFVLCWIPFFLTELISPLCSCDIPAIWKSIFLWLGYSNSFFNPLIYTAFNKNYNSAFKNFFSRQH
Procedure: To evaluate in radioligand binding assays the activity of compounds of the invention, human recombinant serotonin (5-Hydroxytryptamine) 5-HT5A receptor expressed in Chinese hamster ovary (CHO) K1 cells (Rees, S. et al, FEBS Lett. 355:242, 1994) in a modified Tris-HCl buffer (50 mM Tris-HCl, pH 7.4, 10 mM MgCl2, 0.5 mM EDTA) was used. Compounds of the invention were incubated with 1.7 nM [^3H]Lysergic acid diethylamide (LSD) for 60 min at 37° C. Non-specific binding was estimated in the presence of 100 μM Serotonin (5-HT). Receptor proteins were filtered and washed, the filters were counted to determine [^3H]LSD specifically bound. Compounds were screened at 1 μM or lower, using 1% DMSO as vehicle. Biochemical assay results are presented as the percent inhibition of specific binding in Table 4.

[4] = target: T4, human recombinant serotonin (5-Hydroxytryptamine) 5-HT2C receptor (Homo sapiens, UniProt P28335); experiment: Serotonin 5-HT2C radioligand binding ([3H]Mesulergine); settings: compound at 0.1 μM; read-out: Percentage inhibition of ligand binding, Serotonin (0.1 μM) 5-HT2C
T4 construct: expressed in transfected cells; host or cells: CHO-K1
T4 sequence (P28335 33-458): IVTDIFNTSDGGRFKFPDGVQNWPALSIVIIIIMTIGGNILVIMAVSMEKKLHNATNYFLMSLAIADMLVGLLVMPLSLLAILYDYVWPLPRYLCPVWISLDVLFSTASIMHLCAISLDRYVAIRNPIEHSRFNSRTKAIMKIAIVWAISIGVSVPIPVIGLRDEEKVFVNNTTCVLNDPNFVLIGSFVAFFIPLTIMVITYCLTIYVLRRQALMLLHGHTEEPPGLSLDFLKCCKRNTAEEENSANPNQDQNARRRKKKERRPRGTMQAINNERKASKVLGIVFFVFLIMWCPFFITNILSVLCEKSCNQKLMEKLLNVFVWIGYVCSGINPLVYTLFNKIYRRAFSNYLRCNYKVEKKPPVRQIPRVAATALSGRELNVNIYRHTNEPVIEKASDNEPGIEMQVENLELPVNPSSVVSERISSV
Procedure: To evaluate in radioligand binding assays the activity of compounds of the invention, human recombinant serotonin (5-Hydroxytryptamine) 5-HT2C receptor expressed in Chinese hamster ovary (CHO) K1 cells (Wolf, W. et al, J. Neurochem. 69:1449, 1997) in a modified Tris-HCl buffer (50 mM Tris-HCl, pH 7.4, 0.1% Ascorbic Acid, 10 μM Pargyline) was used. Compounds of the invention were incubated with 1 nM [^3H]Mesulergine for 60 min at 25° C. Non-specific binding was estimated in the presence of 1 μM Mianserin. Receptor proteins were filtered and washed, the filters were then counted to determine [^3H]Mesulergine specifically bound. Compounds were screened at 1 μM or lower, using 1% DMSO as vehicle. Biochemical assay results are presented as the percent inhibition of specific binding in Table 4.

[5] = target: T5, human recombinant serotonin (5-Hydroxytryptamine) 5-HT6 receptor (Homo sapiens, UniProt P50406); experiment: Serotonin 5-HT6 radioligand binding ([3H]LSD); settings: compound at 0.1 μM; read-out: Percentage inhibition of ligand binding, Serotonin (0.1 μM) 5-HT6
T5 construct: expressed in transfected cells; host or cells: HeLa
T5 sequence (P50406 whole entry): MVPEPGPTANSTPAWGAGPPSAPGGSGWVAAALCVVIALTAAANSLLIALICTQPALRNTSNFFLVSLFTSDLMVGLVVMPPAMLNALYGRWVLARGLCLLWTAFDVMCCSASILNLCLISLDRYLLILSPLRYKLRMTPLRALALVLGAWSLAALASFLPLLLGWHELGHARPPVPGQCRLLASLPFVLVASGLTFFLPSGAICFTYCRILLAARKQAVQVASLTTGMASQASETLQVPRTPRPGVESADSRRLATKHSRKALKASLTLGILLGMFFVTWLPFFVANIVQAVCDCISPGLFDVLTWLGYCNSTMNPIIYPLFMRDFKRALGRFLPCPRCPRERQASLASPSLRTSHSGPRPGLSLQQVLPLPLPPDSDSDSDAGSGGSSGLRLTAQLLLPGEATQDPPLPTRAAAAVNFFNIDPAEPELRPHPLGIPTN
Procedure: To evaluate in radioligand binding assays the activity of compounds of the invention, human recombinant serotonin (5-Hydroxytryptamine) 5-HT6 receptor expressed in human HeLa cells (Monsma, F. Jr. et al, Mol. Pharmacol. 43:320, 1993) in a modified Tris-HCl buffer (50 mM Tris-HCl, pH 7.4, 150 mM NaCl, 2 mM Ascorbic Acid, 0.001% BSA) was used. Compounds of the invention were incubated with 1.5 nM [3H]Lysergic acid diethylamide (LSD) for 120 min at 37° C. Non-specific binding was estimated in the presence of 5 μM Serotonin (5-HT). Receptor proteins were filtered and washed, the filters were then counted to determine [3H]LSD specifically bound. Compounds were screened at 1 μM or lower, using 1% DMSO as vehicle. Biochemical assay results are presented as the percent inhibition of specific binding in Table 4.

T1 sequence (P35367 whole entry): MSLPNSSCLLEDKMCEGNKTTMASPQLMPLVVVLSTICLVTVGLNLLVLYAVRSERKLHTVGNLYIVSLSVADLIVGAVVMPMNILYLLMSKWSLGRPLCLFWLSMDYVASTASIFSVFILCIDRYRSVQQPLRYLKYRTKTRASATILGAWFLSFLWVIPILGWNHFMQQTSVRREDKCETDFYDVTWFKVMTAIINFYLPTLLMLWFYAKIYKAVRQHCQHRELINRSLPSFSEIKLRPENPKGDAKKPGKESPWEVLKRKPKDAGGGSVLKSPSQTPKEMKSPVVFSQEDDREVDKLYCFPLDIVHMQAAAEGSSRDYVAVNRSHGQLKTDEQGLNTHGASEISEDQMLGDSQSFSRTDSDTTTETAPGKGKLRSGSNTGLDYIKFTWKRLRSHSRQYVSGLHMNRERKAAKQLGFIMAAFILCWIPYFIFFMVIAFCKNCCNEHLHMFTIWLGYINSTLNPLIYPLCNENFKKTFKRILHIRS

## Cc1ccc(C#Cc2cc(Cl)cc3c4c(n(C)c23)CCN(C)C4)cn1 [Compound 18]
[1]
  inhibition at 0.1 µM: 12%
[2]
  inhibition at 1 µM: 7%
[3]
  inhibition at 0.1 µM: 17%
[4]
  inhibition at 0.1 µM: 27%
[5]
  inhibition at 0.1 µM: 6%

## Cc1cc(C#Cc2ccncc2)c2c(c1)c1c(n2C)CCN(C)C1 [Compound 17]
[1]
  inhibition at 0.1 µM: 39%
[2]
  inhibition at 1 µM: 1%
[3]
  inhibition at 0.1 µM: 15%
[4]
  inhibition at 0.1 µM: 19%
[5]
  inhibition at 0.1 µM: 5%

## Cc1cc(/C=C/c2ccc(C)nc2)c2c(c1)c1c(n2C)CCN(C)C1 [Compound 14]
[1]
  inhibition at 0.1 µM: 25%
[2]
  inhibition at 1 µM: 14%
[3]
  inhibition at 0.1 µM: -7%
[4]
  inhibition at 0.1 µM: 1%
[5]
  inhibition at 0.1 µM: 10%

## Cc1cc(CCc2ccc(C)nc2)c2c(c1)c1c(n2C)CCN(C)C1 [Compound 13]
[1]
  inhibition at 0.1 µM: 28%
[2]
  inhibition at 1 µM: 15%
[3]
  inhibition at 0.1 µM: 15%
[4]
  inhibition at 0.1 µM: -11%
[5]
  inhibition at 0.1 µM: 2%

## C/C(=C\c1cc(C)cc2c3c(n(C)c12)CCN(C)C3)c1ccncc1 [Compound 11]
[1]
  inhibition at 0.1 µM: -3%
[2]
  inhibition at 1 µM: 28%
[3]
  inhibition at 0.1 µM: -19%
[4]
  inhibition at 0.1 µM: -11%
[5]
  inhibition at 0.1 µM: -6%

## Cc1cc(C#Cc2nccs2)c2[nH]c3c(c2c1)CN(C)CC3 [Compound 16]
[1]
  inhibition at 0.1 µM: 9%
[2]
  inhibition at 1 µM: -1%
[3]
  inhibition at 0.1 µM: -2%
[4]
  inhibition at 0.1 µM: 20%
[5]
  inhibition at 0.1 µM: 14%

## Cc1cc(C#Cc2cccs2)c2[nH]c3c(c2c1)CN(C)CC3 [Compound 8]
[1]
  inhibition at 0.1 µM: -3%
[2]
  inhibition at 1 µM: -1%
[3]
  inhibition at 0.1 µM: -14%
[4]
  inhibition at 0.1 µM: 4%
[5]
  inhibition at 0.1 µM: 15%

## Cc1cc(-c2ccc(F)cc2)c2c(c1)c1c(n2C)CCN(C)C1 [Compound 7]
[1]
  inhibition at 0.1 µM: 6%
[2]
  inhibition at 1 µM: 5%
[3]
  inhibition at 0.1 µM: -4%
[4]
  inhibition at 0.1 µM: 36%
[5]
  inhibition at 0.1 µM: 10%

## Cc1cc(C#Cc2ccc(C)nc2)c2c(c1)c1c(n2C)CCN(C)C1 [Compound 12, 2,3,4,5-tetrahydro-2,5,8-trimethyl-6-(2-(6-methylpyridin-3-yl)ethynyl)-1H-pyrido[4,3-b]indole]
[1]
  inhibition at 0.1 µM: -14%
[2]
  inhibition at 1 µM: 14%
[3]
  inhibition at 0.1 µM: -21%
[4]
  inhibition at 0.1 µM: 3%
[5]
  inhibition at 0.1 µM: -3%

## Cc1cc(-c2ccncc2)c2c(c1)c1c(n2C)CCN(C)C1 [Compound 9]
[1]
  inhibition at 0.1 µM: 0%
[2]
  inhibition at 1 µM: 7%
[3]
  inhibition at 0.1 µM: 6%
[4]
  inhibition at 0.1 µM: 9%
[5]
  inhibition at 0.1 µM: -2%

## C/C(=C\c1cc(C)cc2c3c(n(C)c12)CCN(C)C3)c1ccc(C)nc1 [Compound 15]
[1]
  inhibition at 0.1 µM: 2%
[2]
  inhibition at 1 µM: 3%
[3]
  inhibition at 0.1 µM: 11%
[4]
  inhibition at 0.1 µM: 28%
[5]
  inhibition at 0.1 µM: 11%

## C#Cc1cc(C)cc2c3c(n(C)c12)CCN(C)C3 [Compound 10, 6-Ethynyl-2,3,4,5-tetrahydro-2,5,8-trimethyl-1H-pyrido[4,3-b]indole]
[1]
  inhibition at 0.1 µM: 5%
[2]
  inhibition at 1 µM: 70%
[3]
  inhibition at 0.1 µM: 1%
[4]
  inhibition at 0.1 µM: 55%
[5]
  inhibition at 0.1 µM: 18%

Source: patent US9034865B2, “Pyrido [4,3-B] indole and pyrido [3,4-B] indole derivatives and methods of use” (Medivation Technologies, Inc., priority 2010, dated 2015)
